Measurements taken from publication PMC8152971, “Valeriana rigida Ruiz & Pav. Root Extract: A New Source of Caffeoylquinic Acids with Antioxidant and Aldose Reductase Inhibitory Activities” (Foods, 2021).
Marks after values point to notes of the source that are not given here.

How the values were obtained:
[1] = DPPH radical scavenging assay; conditions: Trolox equivalent antioxidant capacity, mean ± SD, n ≥ 3
Experimental: The experiment was carried out as previously described. […] Thereafter, the absorbance was measured using a microplate reader (EL800, Bio-Tek Instruments, Winooski, VT, USA) at 570 nm.

[2] = ABTS radical scavenging assay; conditions: Trolox equivalent antioxidant capacity, mean ± SD, n ≥ 3
Experimental: The experiment was conducted as previously described. In brief, 3.5 mM of potassium persulfate aqueous solution was used to prepare 0.2 mM of ABTS diammonium salt. The solution was diluted 10-fold using distilled water and allowed to produce ABTS radicals (ABTS^+) by keeping the solution in the dark for 14 h at room temperature. […] Equation (1) was used to calculate the ABTS^+ scavenging activity (%), where Acontrol is the absorbance of ABTS^+ solution free of samples, Asample is the absorbance of ABTS^+ solution incubated with a sample, Ablank1 is the absorbance of the test sample free of ABTS^+ solution, and Ablank2 is the absorbance of the diluted potassium persulfate solution.

[3] = Oxygen radical absorbance capacity (ORAC) assay; conditions: Trolox equivalent antioxidant capacity, mean ± SD, n ≥ 3
Experimental: The oxygen radical absorbance capacity (ORAC) assay was performed as previously described. Briefly, 0. […] Next, 60 µL of AAPH (40 mM) was added to generate peroxyl radicals to initiate the reaction.

[4] = Hypochlorous acid (HOCl) scavenging assay
Experimental: The HOCl scavenging assay was adapted from a previous study using 1,8-diaminonaphthalene as a fluorescence probe for hypochlorite. […] Next, the fluorescence intensity (λex = 360 ± 20 nm, λem = 460 ± 20 nm) was immediately measured using a microplate fluorescence reader (FLx800; Bio-Tek, Winooski, VT, USA). Trolox (final concentration 25–100 µg/mL) was used as a reference antioxidant.

[5] = target: T1, rat lens AR homogenate (aldose reductase) (Rattus norvegicus, UniProt P07943); assay: AR inhibition assay; assay type: biochemical, Sprague–Dawley rats; conditions: read-out: AR inhibitory Activity Inhibition (%)
T1 construct: the lenses were removed from the eyes, ground in a mortar; from tissue; host or cells: lens of Sprague–Dawley rats
Experimental: The eyes of 10-week Sprague–Dawley rats (250–280 g) were removed and frozen at −70 °C before use. Thereafter, the lenses were removed from the eyes, ground in a mortar (precooled at −70 °C), and extracted using 0.1 M PBS of pH 6.2 (around 0.5 mL of buffer per two frozen rat lenses).
The AR inhibitory activities of the extract and the separated compounds were determined as described previously. […] Next, the reaction was initiated by adding 20 µL of the substrate (DL-glyceraldehyde dimmer, 25 mM in 0.1 M PBS of pH 7.0), and the values were further measured for 6 min at 340 nm (OD340) using an Epoch microplate spectrophotometer (BioTek Instruments, Winooski, VT, USA). […] The DMSO used for sample preparation was less than 0.4% (v/v) in the reaction system.

[6] = Partition coefficient (K upper/lower) in biphasic CCC solvent systems; assay type: physicochemical
Experimental: The solvent system was screened via HPLC and evaluated according to the partition coefficient (K value) of the target compounds on the principle introduced by Ito [32]. Briefly, four solvent systems comprising EtOAc, n-BuOH, […] solution to 29 mM, and then the corresponding K values of the target compounds under acidic (Kacid) or basic (Kbase) conditions were determined, as previously described: each acidified or basified solvent system was partitioned to upper layer and lower layer. Thereafter, the extract (about 1–2 mg) was prepared in a 1.5 mL tube and dissolved by adding equal volumes (each 500 µL) of the upper layer and lower layers, which were mixed by a vortex mixer and centrifuged for about 20 s using a C1301 Mini Centrifuge (Labnet International, South Korea). Next, the upper and lower phase sample solutions were respectively pipetted (each 200 µL) into a new 1.5 mL-tube and evaporated by nitrogen gas. Each sample residue was redissolved using 200 µL of MeOH and subjected to HPLC analysis with an injection volume of 20 µL. The K value was calculated as K = Aupper/Alower, where Aupper and Alower are the HPLC peak areas of the target component in the upper and lower phases, respectively.

Question: Which results are given for `O=C(/C=C/c1ccc(O)c(O)c1)O[C@@H]1C[C@](O)(C(=O)O)C[C@@H](OC(=O)/C=C/c2ccc(O)c(O)c2)[C@H]1O` [3,5-diCQA (5), 3,5-di-O-caffeoylquinic acid]?
Answer: TE, DPPH [1]: 0.86 ± 0.08 ^c µmol Trolox Equivalents Per µmol Compound; TE, ABTS [2]: 0.89 ± 0.05 ^d µmol Trolox Equivalents Per µmol Compound; TE, ORAC [3]: 2.13 ± 0.07 ^b µmol Trolox Equivalents Per µmol Compound; HOCl Scavenging Activity Inhibition (%) ([4]; 3.125 µM): 49.56 ± 1.23%; HOCl Scavenging Activity Inhibition (%) ([4]; 6.25 µM): 56.13 ± 3.01%; HOCl Scavenging Activity Inhibition (%) ([4]; 12.5 µM): 62.86 ± 1.23%; IC50 ([4]; linear regression): 2930 nM; inhibition at 0.098 µM ([5]; 0.098 µM): 35.4 ± 1.33%; inhibition at 0.195 µM ([5]; 0.195 µM): 62.3 ± 1.33%; inhibition at 0.391 µM ([5]; 0.391 µM): 75.6 ± 1.33%; K(upper/lower) Value ([6]; EtOAc/H2O, 1:1, 30 mM ammonia): 0.01; K(upper/lower) Value ([6]; EtOAc/H2O, 1:1, 208 mM formic acid): 7.71; K(upper/lower) Value ([6]; EtOAc/n-BuOH/H2O, 2:3:5, 30 mM ammonia): 0.12; K(upper/lower) Value ([6]; EtOAc/n-BuOH/H2O, 2:3:5, 208 mM formic acid): 38.56; K(upper/lower) Value ([6]; EtOAc/n-BuOH/H2O, 3:2:5, 30 mM ammonia): 0.01; K(upper/lower) Value ([6]; EtOAc/n-BuOH/H2O, 3:2:5, 208 mM formic acid): 35.91; K(upper/lower) Value ([6]; EtOAc/n-BuOH/H2O, 4:1:5, 30 mM ammonia): 0.01; K(upper/lower) Value ([6]; EtOAc/n-BuOH/H2O, 4:1:5, 208 mM formic acid): 14.23
